Source: ChEMBL document CHEMBL3046495, “CoMFA, ADVANCE CoMFA AND CoMSIA STUDIES ON THE OXADIAZOLE SUBSTITUTED -ISOPROPOXY PHENYLPROPIONIC ACIDS FOR PPAR AGONISTIC ACTIVITY” (Med Chem Res, 2004)

Target: T1, Peroxisome proliferator-activated receptor alpha (Homo sapiens, UniProt Q07869)
T1 sequence (Q07869 whole entry): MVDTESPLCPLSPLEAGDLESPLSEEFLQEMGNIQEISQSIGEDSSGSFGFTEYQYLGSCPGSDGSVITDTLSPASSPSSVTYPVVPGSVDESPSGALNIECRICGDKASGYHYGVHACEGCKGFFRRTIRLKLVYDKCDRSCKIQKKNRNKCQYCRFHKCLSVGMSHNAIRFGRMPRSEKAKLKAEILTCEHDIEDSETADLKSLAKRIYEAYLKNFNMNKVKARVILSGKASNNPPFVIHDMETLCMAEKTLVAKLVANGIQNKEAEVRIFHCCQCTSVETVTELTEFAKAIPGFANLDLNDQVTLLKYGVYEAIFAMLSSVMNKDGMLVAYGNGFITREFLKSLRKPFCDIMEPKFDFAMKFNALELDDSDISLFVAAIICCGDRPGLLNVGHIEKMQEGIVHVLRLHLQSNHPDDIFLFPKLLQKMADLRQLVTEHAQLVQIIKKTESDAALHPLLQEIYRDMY
Assay: Agonist activity at PPARalpha (unknown origin)

SMILES: CC(C)OC(Cc1ccc(OCCc2noc(C3CCCCC3)n2)cc1)C(=O)O (configuration not stated)
- EC50: 240 nM

SMILES: CC(C)Cc1ccc(-c2nc(COc3ccc(CC(OC(C)C)C(=O)O)cc3)no2)cc1 (configuration not stated)
- EC50: 40 nM
